# Measured values published in patent publication US6696293B2, “Process for producing carotenoids and biological materials useful therefor” (Roche Vitamins Inc., priority 2000, dated 2004).
# Test system: P. rhodozyma ATCC 96594
# Experiment: Growth of P. rhodozyma colonies on SHAM-containing YPD-agar
# Type: cell-based, Phaffia rhodozyma
# Conditions: 3 day-cultivation at 20° C.; for Relative colony diameter (%): relative to control colonies without SHAM
# Experimental: To examine the effects of the inhibition of KCN-resistant respiration mediated by alternative oxidase on the growth of P. rhodozyma, SHAM was added to a culture of P. rhodozyma on YPD-agar medium. SHAM was dissolved in ethanol and added to the YPD-agar medium to give 0.05, 0.15, 0.30, 0.45 and 0.90 mg/ml as a final concentration. After dilution, 2×10^7 cells/ml of P. rhodozyma ATCC 96594 were spread on the media. After a 3 day-cultivation at 20° C., colonies were counted. […] However, the colonies that grew on SHAM-containing media were smaller than the colonies that grew on the control media.
compound,measurement,setting,value
"O=C(NO)c1ccccc1O [SHAM, Salicylhydroxamic acid]",Relative colony diameter (%),SHAM 0.05 mg/ml in YPD-agar,100%
same,Relative colony diameter (%),SHAM 0.15 mg/ml in YPD-agar,70%
same,Relative colony diameter (%),SHAM 0.30 mg/ml in YPD-agar,40%
same,Relative colony diameter (%),SHAM 0.45 mg/ml in YPD-agar,30%
same,Relative colony diameter (%),SHAM 0.90 mg/ml in YPD-agar,12%
same,Number of colonies that grew on SHAM-containing YPD agar,"SHAM 0.05-0.90 mg/ml, compared with control medium without SHAM",almost the same as that on control medium
